Source: ChEMBL document CHEMBL4732086, “Targeting nuclear protein TDP-43 by cell division cycle kinase 7 inhibitors: A new therapeutic approach for amyotrophic lateral sclerosis” (Eur J Med Chem, 2021)
The source made the active and inactive calls. The calls are words filed in the database; no cut-off is given here.

Legend:
[1] = system: SH-SY5Y; test: Neuroprotective activity in human SH-SY5Y cells assessed by effect on TDP-43 levels preincubated for 1 hr followed by incubation with ethacrynic acid for 24 hrs measured at 10 uM by Western blot assay; format: functional, cell-based
[2] = target: T1, Mitogen-activated protein kinase 12 (Homo sapiens) (UniProt P53778); test: Inhibition of recombinant human full length His-tagged MAPK12 expressed in baculovirus expression system using serine/threonine-03 peptide as substrate at 10 uM incubated for 60 mins in presence of ATP by Z'-LYTE assay
T1 sequence (whole entry): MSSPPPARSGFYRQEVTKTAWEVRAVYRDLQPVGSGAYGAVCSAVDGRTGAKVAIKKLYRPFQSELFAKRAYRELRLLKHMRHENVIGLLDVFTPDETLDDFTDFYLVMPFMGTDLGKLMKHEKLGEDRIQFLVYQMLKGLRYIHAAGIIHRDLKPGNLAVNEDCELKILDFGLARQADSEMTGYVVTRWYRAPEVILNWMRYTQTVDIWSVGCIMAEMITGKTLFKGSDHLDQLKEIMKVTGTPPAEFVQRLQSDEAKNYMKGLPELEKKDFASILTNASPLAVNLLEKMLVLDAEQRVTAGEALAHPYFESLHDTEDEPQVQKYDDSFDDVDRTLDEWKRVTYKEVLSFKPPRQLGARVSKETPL

[3] = target: Tyrosine-protein kinase ABL1 (Homo sapiens) (UniProt P00519); test: Inhibition of recombinant full length human His-tagged ABL1 expressed in baculovirus expression system using tyrosine-2 peptide as substrate at 10 uM incubated for 60 mins in presence of ATP by Z'-LYTE assay
[4] = target: Dual specificity tyrosine-phosphorylation-regulated kinase 1B (Homo sapiens) (UniProt Q9Y463); test: Inhibition of recombinant human full length GST-tagged DYRK1B expressed in baculovirus expression system using serine/threonine-18 peptide as substrate at 10 uM incubated for 60 mins in presence of ATP by Z'-LYTE assay
[5] = target: Casein kinase II subunit alpha (Homo sapiens) (UniProt P68400); test: Inhibition of recombinant human full length His-tagged CSNK2A1 expressed in baculovirus expression system using serine/threonine-11 peptide as substrate at 10 uM incubated for 60 mins in presence of ATP by Z'-LYTE assay
[6] = target: Dual specificity tyrosine-phosphorylation-regulated kinase 1A (Homo sapiens) (UniProt Q13627); test: Inhibition of recombinant human full length GST-tagged DYRK1A expressed in baculovirus expression system using serine/threonine-18 peptide as substrate at 10 uM incubated for 60 mins in presence of ATP by Z'-LYTE assay
[7] = target: Glycogen synthase kinase-3 beta (Homo sapiens) (UniProt P49841); test: Inhibition of recombinant human full length His-tagged GSK3B expressed in baculovirus expression system using serine/threonine-09 peptide as substrate at 10 uM incubated for 60 mins in presence of ATP by Z'-LYTE assay
[8] = target: Serine/threonine-protein kinase PAK 1 (Homo sapiens) (UniProt Q13153); test: Inhibition of recombinant human full length GST-tagged PAK1 expressed in baculovirus expression system using serine/threonine-19 peptide as substrate at 10 uM by Z'-LYTE assay; conditions: time 60.0 min
[9] = target: RAC-beta serine/threonine-protein kinase (Homo sapiens) (UniProt P31751); test: Inhibition of recombinant full length human His-tagged AKT2 using serine/threonine-06 peptide as substrate at 10 uM incubated for 60 mins in presence of ATP by Z'-LYTE assay
[10] = target: Serine/threonine-protein kinase MARK2 (Homo sapiens) (UniProt Q7KZI7); test: Inhibition of recombinant human full length GST-tagged MARK2 expressed in baculovirus expression system using serine/threonine-21 peptide as substrate at 10 uM by Z'-LYTE assay; conditions: time 60.0 min
[11] = target: T2, Tyrosine-protein kinase JAK3 (Homo sapiens) (UniProt P52333); test: Inhibition of recombinant human GST-tagged JAK3 expressed in baculovirus expression system using Tyr-06 peptide as substrate at 10 uM incubated for 60 mins in presence of ATP by Z'-LYTE assay
T2 sequence (whole entry): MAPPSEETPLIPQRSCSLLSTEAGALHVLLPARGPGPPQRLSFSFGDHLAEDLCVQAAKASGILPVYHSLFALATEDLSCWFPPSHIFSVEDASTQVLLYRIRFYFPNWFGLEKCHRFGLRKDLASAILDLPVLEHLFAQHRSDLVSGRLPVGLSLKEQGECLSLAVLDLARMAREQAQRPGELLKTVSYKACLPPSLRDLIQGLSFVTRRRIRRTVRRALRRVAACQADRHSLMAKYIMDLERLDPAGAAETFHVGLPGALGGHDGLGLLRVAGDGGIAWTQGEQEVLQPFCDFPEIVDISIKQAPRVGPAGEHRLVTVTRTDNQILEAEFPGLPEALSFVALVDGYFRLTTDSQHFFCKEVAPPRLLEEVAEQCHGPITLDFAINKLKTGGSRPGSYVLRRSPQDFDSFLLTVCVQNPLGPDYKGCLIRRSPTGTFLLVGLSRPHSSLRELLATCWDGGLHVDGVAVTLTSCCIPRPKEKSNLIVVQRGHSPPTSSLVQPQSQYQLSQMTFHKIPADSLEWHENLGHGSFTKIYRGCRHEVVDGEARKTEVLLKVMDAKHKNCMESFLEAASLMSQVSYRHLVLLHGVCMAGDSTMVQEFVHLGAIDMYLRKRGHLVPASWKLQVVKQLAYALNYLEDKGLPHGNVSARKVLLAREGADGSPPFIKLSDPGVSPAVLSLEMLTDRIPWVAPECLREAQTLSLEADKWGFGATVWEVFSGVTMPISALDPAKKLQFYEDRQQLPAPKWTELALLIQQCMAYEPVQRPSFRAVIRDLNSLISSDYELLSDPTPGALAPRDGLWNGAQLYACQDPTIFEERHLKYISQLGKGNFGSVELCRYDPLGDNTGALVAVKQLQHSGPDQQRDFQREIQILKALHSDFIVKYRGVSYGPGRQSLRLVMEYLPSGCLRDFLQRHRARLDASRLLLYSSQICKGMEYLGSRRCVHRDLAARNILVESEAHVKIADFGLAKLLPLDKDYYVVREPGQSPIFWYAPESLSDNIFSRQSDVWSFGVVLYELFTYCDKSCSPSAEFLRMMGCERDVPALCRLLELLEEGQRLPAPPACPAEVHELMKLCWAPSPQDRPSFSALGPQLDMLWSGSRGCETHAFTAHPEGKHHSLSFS

[12] = target: Cell division cycle 7-related protein kinase (Homo sapiens) (UniProt O00311); test: Inhibition of human CDC7 in human SH-SY5Y cells assessed as prevention of ethacrynic acid-induced cell death preincubated for 1 hr followed by incubation with ethacrynic acid for 24 hrs measured at 10 uM by MTT assay relative to control; format: cell-based
[13] = target: Calcium/calmodulin-dependent protein kinase type II subunit alpha (Homo sapiens) (UniProt Q9UQM7); test: Inhibition of recombinant full length human His-tagged CAMK2alpha expressed in baculovirus expression system using serine/threonine-4 peptide as substrate at 10 uM incubated for 60 mins in presence of ATP by Z'-LYTE assay
Sequence of Calcium/calmodulin-dependent protein kinase type II subunit alpha (Homo sapiens) (Q9UQM7 whole entry): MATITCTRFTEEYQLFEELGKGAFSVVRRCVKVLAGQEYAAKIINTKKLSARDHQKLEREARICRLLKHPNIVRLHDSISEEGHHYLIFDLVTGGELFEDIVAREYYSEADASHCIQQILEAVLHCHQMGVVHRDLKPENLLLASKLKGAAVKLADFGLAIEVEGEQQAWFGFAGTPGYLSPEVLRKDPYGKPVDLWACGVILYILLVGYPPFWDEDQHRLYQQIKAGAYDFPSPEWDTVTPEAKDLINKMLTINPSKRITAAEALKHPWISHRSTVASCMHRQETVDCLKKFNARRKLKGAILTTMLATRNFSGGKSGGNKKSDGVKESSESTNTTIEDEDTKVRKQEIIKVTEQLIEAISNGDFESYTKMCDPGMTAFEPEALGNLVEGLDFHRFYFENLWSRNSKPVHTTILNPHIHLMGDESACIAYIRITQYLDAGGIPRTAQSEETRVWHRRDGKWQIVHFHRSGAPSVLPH

Sequence of Dual specificity tyrosine-phosphorylation-regulated kinase 1B (Homo sapiens) (Q9Y463 whole entry, looked up): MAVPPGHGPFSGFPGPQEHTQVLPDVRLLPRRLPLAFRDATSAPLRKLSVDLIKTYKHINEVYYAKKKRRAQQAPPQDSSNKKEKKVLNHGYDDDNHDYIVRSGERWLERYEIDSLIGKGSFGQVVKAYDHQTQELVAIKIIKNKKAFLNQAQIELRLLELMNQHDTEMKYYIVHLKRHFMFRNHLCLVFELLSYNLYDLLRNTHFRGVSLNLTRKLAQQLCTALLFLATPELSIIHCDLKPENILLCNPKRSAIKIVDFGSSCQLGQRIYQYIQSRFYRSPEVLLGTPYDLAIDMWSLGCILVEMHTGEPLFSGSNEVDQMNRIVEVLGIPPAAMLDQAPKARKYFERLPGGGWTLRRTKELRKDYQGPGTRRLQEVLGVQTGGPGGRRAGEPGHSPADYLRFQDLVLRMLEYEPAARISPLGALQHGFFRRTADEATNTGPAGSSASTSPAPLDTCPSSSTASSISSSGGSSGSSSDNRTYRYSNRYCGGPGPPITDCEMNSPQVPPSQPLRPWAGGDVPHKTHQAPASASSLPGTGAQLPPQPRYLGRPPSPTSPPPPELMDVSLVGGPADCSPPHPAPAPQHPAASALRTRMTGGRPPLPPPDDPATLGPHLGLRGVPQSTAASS
Sequence of Serine/threonine-protein kinase PAK 1 (Homo sapiens) (Q13153 whole entry): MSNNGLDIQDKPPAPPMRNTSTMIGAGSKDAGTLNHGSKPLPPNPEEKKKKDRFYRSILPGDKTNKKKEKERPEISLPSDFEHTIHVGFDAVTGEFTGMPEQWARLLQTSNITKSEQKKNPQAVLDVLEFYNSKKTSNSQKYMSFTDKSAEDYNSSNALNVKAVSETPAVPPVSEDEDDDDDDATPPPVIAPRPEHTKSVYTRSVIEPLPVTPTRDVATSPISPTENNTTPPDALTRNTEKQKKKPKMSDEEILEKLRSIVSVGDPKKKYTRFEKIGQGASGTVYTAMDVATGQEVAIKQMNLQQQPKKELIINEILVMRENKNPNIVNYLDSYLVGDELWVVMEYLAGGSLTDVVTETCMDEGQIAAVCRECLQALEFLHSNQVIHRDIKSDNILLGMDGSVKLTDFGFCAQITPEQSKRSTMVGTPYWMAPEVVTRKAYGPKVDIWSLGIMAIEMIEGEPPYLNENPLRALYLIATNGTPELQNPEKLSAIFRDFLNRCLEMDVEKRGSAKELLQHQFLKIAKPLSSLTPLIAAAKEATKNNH
Sequence of Glycogen synthase kinase-3 beta (Homo sapiens) (P49841 whole entry, looked up): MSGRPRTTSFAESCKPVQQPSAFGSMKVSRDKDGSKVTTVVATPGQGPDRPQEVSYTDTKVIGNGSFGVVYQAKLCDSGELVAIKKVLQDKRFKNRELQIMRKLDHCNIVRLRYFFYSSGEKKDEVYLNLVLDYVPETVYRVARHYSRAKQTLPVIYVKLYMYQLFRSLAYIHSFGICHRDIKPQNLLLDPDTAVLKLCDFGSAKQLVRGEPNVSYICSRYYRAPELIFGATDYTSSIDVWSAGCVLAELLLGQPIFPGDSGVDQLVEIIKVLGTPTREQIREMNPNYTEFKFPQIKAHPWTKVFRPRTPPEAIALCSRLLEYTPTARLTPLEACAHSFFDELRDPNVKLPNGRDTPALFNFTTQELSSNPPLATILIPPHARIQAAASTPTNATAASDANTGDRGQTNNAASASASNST
Sequence of RAC-beta serine/threonine-protein kinase (Homo sapiens) (P31751 whole entry): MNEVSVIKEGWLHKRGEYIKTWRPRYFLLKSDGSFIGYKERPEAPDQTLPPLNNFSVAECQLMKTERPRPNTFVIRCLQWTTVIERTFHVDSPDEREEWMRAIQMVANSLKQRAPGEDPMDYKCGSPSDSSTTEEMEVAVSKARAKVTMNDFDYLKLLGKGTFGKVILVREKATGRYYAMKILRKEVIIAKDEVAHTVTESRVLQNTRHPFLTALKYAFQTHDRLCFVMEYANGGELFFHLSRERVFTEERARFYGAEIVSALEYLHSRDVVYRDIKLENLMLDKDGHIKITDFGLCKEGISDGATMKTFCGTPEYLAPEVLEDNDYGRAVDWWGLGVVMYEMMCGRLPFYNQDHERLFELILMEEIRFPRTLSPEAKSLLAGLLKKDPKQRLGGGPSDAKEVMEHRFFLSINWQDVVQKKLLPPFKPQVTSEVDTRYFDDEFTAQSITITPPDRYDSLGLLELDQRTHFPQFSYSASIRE
Sequence of Tyrosine-protein kinase ABL1 (Homo sapiens) (P00519 whole entry): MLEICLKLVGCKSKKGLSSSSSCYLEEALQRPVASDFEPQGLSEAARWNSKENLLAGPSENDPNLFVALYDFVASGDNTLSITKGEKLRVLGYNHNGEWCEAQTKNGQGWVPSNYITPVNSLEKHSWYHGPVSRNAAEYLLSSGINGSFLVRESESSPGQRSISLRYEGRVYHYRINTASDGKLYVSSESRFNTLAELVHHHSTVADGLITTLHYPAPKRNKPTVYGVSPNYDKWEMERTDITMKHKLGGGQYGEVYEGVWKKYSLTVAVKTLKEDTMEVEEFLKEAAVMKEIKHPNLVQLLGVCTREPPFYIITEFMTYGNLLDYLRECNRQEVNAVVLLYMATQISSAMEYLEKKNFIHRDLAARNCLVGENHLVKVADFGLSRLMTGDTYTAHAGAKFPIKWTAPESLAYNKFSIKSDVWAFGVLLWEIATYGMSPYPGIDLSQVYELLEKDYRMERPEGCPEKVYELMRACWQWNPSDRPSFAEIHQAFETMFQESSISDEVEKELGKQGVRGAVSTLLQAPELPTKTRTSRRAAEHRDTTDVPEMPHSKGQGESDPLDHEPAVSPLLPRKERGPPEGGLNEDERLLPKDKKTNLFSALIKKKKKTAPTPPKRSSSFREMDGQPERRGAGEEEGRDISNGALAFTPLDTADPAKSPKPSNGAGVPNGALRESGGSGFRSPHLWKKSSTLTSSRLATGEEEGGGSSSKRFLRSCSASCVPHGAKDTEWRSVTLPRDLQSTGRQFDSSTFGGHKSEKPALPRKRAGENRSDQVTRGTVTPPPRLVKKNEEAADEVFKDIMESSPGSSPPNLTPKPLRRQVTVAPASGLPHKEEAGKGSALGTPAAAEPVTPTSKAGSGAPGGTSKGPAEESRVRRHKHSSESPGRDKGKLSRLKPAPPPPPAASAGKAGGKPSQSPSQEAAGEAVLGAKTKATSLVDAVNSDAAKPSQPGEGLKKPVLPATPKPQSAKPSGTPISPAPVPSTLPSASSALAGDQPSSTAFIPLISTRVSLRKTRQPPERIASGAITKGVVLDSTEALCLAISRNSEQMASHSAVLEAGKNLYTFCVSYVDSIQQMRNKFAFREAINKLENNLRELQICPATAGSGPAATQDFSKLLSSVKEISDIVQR
Sequence of Cell division cycle 7-related protein kinase (Homo sapiens) (O00311 whole entry, looked up): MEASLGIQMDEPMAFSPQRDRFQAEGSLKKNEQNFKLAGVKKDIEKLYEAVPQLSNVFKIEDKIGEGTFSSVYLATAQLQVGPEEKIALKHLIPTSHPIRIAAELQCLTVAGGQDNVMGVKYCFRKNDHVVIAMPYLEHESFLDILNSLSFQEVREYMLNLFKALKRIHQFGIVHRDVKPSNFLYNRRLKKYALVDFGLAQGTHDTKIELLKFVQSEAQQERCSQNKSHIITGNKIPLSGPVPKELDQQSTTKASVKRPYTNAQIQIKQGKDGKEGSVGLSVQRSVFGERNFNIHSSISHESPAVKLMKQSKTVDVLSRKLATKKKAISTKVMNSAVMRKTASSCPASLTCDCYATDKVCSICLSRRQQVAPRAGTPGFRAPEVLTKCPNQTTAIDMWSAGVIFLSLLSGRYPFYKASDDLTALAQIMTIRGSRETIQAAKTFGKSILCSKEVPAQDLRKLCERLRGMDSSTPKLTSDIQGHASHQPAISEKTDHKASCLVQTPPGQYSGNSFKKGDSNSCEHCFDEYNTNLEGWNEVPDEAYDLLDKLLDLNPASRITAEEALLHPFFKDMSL
Sequence of Serine/threonine-protein kinase MARK2 (Homo sapiens) (Q7KZI7 whole entry): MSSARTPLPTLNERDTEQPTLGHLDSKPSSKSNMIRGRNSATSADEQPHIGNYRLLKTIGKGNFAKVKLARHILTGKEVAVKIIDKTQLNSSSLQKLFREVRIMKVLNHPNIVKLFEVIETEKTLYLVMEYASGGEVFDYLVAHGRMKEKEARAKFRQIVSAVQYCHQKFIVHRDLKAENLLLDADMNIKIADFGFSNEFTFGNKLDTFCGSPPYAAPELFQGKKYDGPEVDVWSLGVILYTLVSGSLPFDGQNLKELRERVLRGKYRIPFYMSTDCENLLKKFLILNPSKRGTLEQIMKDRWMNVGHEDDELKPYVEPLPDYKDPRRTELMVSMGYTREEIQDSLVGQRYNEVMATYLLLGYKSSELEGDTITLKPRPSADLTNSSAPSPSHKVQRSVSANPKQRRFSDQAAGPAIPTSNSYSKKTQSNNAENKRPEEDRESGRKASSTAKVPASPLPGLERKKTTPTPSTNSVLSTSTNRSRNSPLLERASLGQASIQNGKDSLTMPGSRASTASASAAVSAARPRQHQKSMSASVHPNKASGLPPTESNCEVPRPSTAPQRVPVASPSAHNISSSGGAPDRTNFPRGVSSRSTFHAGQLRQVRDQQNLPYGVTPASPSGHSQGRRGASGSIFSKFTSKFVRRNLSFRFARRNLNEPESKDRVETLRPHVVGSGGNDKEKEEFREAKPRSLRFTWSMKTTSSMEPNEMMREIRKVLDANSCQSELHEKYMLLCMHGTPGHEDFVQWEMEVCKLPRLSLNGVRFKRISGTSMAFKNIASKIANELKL

**Q.** Which results are given for `c1ccc(CSc2ncnc3[nH]cnc23)cc1`?
**A.** Activity [1]: inactive; inhibition [2]: inactive; inhibition [3]: inactive; inhibition [4]: inactive; inhibition [5]: inactive; inhibition [6]: inactive; inhibition [7]: inactive; inhibition [8]: inactive; inhibition [9]: inactive; inhibition [10]: inactive; inhibition [11]: inactive; inhibition [12]: Active; inhibition [13]: inactive

**Q.** With `Clc1cccc(CSc2ncnc3[nH]cnc23)c1` as the compound, how does the Activity [1] read?
**A.** inactive

**Q.** And the inhibition [2]?
**A.** inactive

**Q.** What about the inhibition [3] of the same compound?
**A.** inactive

**Q.** What about the inhibition [4] of the same compound?
**A.** inactive

**Q.** And the inhibition [5]?
**A.** inactive

**Q.** What about the inhibition [6] of the same compound?
**A.** inactive

**Q.** And the inhibition [7]?
**A.** inactive

**Q.** And the inhibition [8]?
**A.** inactive

**Q.** What about the inhibition [9] of the same compound?
**A.** inactive

**Q.** What about the inhibition [10] of the same compound?
**A.** inactive

**Q.** What about the inhibition [11] of the same compound?
**A.** inactive

**Q.** What about the inhibition [12] of the same compound?
**A.** Active

**Q.** What about the inhibition [13] of the same compound?
**A.** inactive

**Q.** How did the Activity [1] turn out when `Brc1ccccc1CSc1ncnc2[nH]cnc12` was run?
**A.** inactive

**Q.** What about the inhibition [2] of the same compound?
**A.** inactive

**Q.** And the inhibition [3]?
**A.** inactive

**Q.** What about the inhibition [4] of the same compound?
**A.** inactive

**Q.** And the inhibition [5]?
**A.** inactive

**Q.** What about the inhibition [6] of the same compound?
**A.** inactive

**Q.** And the inhibition [7]?
**A.** inactive

**Q.** What about the inhibition [8] of the same compound?
**A.** inactive

**Q.** What about the inhibition [9] of the same compound?
**A.** inactive

**Q.** And the inhibition [10]?
**A.** inactive

**Q.** What about the inhibition [11] of the same compound?
**A.** inactive

**Q.** What about the inhibition [12] of the same compound?
**A.** Active

**Q.** What about the inhibition [13] of the same compound?
**A.** inactive
